Measured values taken from patent publication US6362369B1, “Phthalic acid diamide derivatives fluorine-containing aniline compounds as starting material, agricultural and horticultural insecticides, and a method for application of the insecticides” (Nihon Nohyaku Co., Ltd., priority 1997, dated 2002).

Legend:
[1] = tested on: rice leafroller (Cnaphalocrocis medinalis); experiment: Insecticidal effect on rice leafroller (Test Example 3); type: in vivo; settings: 500 ppm, 25° C., humidity 70%; for Insecticidal effect, Test Example 3: rice lamina immersed; for Insecticidal effect, Test Example 3 / Insecticidal effect on rice leafroller (Test Example 3), judged grade: four days after inoculation; for Insecticidal effect on rice leafroller (Test Example 3), judged grade / Insecticidal effect (Test Example 3), judged from mortality: rice lamina dip; for Insecticidal effect on rice leafroller (Test Example 3), judged grade: third-instar larvae; for Insecticidal effect (Test Example 3), judged from mortality: 4 days after inoculation
Description: Insecticidal effect on rice leafroller (Cnaphalocrocis medinalis)
After air-drying, the lamina was placed in a plastic Petri dish with a diameter of 9 cm whose bottom had been covered with a wetted filter paper. The lamina was inoculated with third-instar larvae of rice leafroller, after which the dish was allowed to stand in a room thermostated at 25° C. and having a humidity of 70%. Four days after the inoculation, the dead and alive were counted and the insecticidal effect was judged according to the criterion shown in Test Example 1. The test was carried out with triplicate groups of 10 insects.

[2] = tested on: diamondback moth (Plutella xylostella); experiment: Insecticidal effect on diamondback moth (Test Example 1); type: in vivo; settings: diamondback moth; judged by the mortality criterion of Test Example 1
In short: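 Eggs laid by adult moths on Chinese cabbage seedlings, which were immersed in test solution, air-dried and kept at 25 °C. Hatched insects counted 6 days after immersion and mortality calculated, with effect graded by criterion; triplicate groups of 10 insects.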

[3] = third-instar larvae of rice leafroller
[4] = rice leafroller third-instar larvae

Structure (SMILES)	Insecticidal effect, Test Example 3 [1, 3]	Insecticidal effect, Test Example 1 [2]	Insecticidal effect, Test Example 3 [1, 4]	other results
CC(C)NC(=O)c1cccc(Br)c1C(=O)Nc1ccc(OC(F)(F)F)cc1 [Compound No. 302, 6-bromo-N^1-(4-trifluoromethoxyphenyl)-N^2-isopropylphthalic acid diamide]	D (79-50)	A (100)	–	–
CNC(=O)c1c(C(=O)Nc2ccc(OC(F)F)cc2C)cccc1[N+](=O)[O-] [compound 4]	D (79-50)	A (100)	–	–
CCNC(=O)c1cccc(Cl)c1C(=O)Nc1ccc(OC(F)F)cc1C [compound 9]	A (100)	A (100)	–	–
CCN(CC)C(=O)c1c(C(=O)Nc2cc(Cl)ccc2C)cccc1[N+](=O)[O-] [compound 13]	D (79-50)	D (79-50)	–	–
CCCNC(=O)c1c(Cl)cccc1C(=O)Nc1ccc(OC(F)F)cc1C [compound 15]	A (100)	A (100)	–	–
CCCNC(=O)c1c(C(=O)Nc2ccc(OC(F)F)cc2C)cccc1[N+](=O)[O-] [compound 17]	D (79-50)	A (100)	–	–
CCCNC(=O)c1c(C(=O)Nc2cc(Cl)ccc2C)cccc1[N+](=O)[O-] [compound 18]	A (100)	D (79-50)	–	–
CC(C)NC(=O)c1ccccc1C(=O)Nc1ccc(F)cc1 [compound 23]	D (79-50)	A (100)	–	–
Cc1ccccc1NC(=O)c1ccccc1C(=O)NC(C)C [compound 24]	D (79-50)	A (100)	–	–
CC(C)NC(=O)c1ccccc1C(=O)Nc1ccc(C(F)(F)F)cc1 [compound 25]	A (100)	A (100)	–	–
CC(C)NC(=O)c1ccccc1C(=O)Nc1cccc(C(F)(F)F)c1 [compound 26]	D (79-50)	A (100)	–	–
CC(C)NC(=O)c1ccccc1C(=O)Nc1cccc(Cl)c1Cl [compound 41]	A (100)	A (100)	–	–
CC(C)NC(=O)c1ccccc1C(=O)Nc1ccc(C(F)(F)F)cc1Cl [compound 45]	A (100)	A (100)	–	–
CC(C)NC(=O)c1ccccc1C(=O)Nc1ccc(C(F)(C(F)(F)F)C(F)(F)F)cc1Cl [compound 46]	B (99-90)	A (100)	–	–
Cc1ccc(Cl)cc1NC(=O)c1ccccc1C(=O)NC(C)C [compound 51]	A (100)	A (100)	–	–
Cc1ccc(F)cc1NC(=O)c1ccccc1C(=O)NC(C)C [compound 53]	A (100)	A (100)	–	–
COCOc1ccc(NC(=O)c2ccccc2C(=O)NC(C)C)c(C)c1 [compound 69]	A (100)	A (100)	–	–
CSCOc1ccc(NC(=O)c2ccccc2C(=O)NC(C)C)c(C)c1 [compound 70]	A (100)	A (100)	–	–
Cc1cc(Oc2ccc(C(F)(F)F)cc2Cl)ccc1NC(=O)c1ccccc1C(=O)NC(C)C [compound 75]	A (100)	A (100)	–	–
Cc1cc(OCc2ccc(Cl)cc2)ccc1NC(=O)c1ccccc1C(=O)NC(C)C [compound 76]	B (99-90)	C (89-80)	–	–
CC(C)NC(=O)c1ccccc1C(=O)Nc1ccc2c(c1)nc(C(F)(F)F)n2C [compound 86]	B (99-90)	B (99-90)	–	–
CCCCc1ccc(NC(=O)c2cccc(Cl)c2C(=O)NC(C)C)cc1 [compound 87]	A (100)	A (100)	–	–
CC(C)NC(=O)c1c(Cl)cccc1C(=O)Nc1ccc(SC(F)F)cc1 [compound 98]	C (89-80)	A (100)	–	–
CC(C)NC(=O)c1cccc(F)c1C(=O)Nc1ccc(C(F)(F)C(F)(F)C(F)(F)C(F)(F)F)cc1 [compound 536]	–	–	–	Insecticidal effect on rice leafroller (Test Example 3), judged grade [1]: A (100)
CCCCc1ccc(NC(=O)c2cccc([N+](=O)[O-])c2C(=O)NC(C)C)cc1 [compound 605]	–	–	–	Insecticidal effect on rice leafroller (Test Example 3), judged grade [1]: C (89-80)
CC(C)NC(=O)c1c(C(=O)Nc2cccc3c2CCC3)cccc1[N+](=O)[O-] [compound 735]	–	–	–	Insecticidal effect on rice leafroller (Test Example 3), judged grade [1]: D (79-50)
Cc1cc(Cl)ccc1NC(=O)c1cccc(C(F)(F)F)c1C(=O)NC(C)C [compound 758]	–	–	–	Insecticidal effect on rice leafroller (Test Example 3), judged grade [1]: A (100)
Cc1cc(OC(F)F)ccc1NC(=O)c1cccc(C(F)(F)F)c1C(=O)NC(C)C [compound 759]	–	–	–	Insecticidal effect on rice leafroller (Test Example 3), judged grade [1]: D (79-50)

Structure (SMILES)	Insecticidal effect, Test Example 3 [1, 3]	Insecticidal effect, Test Example 1 [2]	Insecticidal effect, Test Example 3 [1, 4]	other results
Cc1c(Cl)cccc1NC(=O)c1c(C(=O)NC(C)C)cccc1C(F)(F)F [compound 765]	–	–	–	Insecticidal effect on rice leafroller (Test Example 3), judged grade [1]: A (100)
Cc1cc(Br)ccc1NC(=O)c1cccc([S+](C)[O-])c1C(=O)NC(C)C (stereo not drawn) [compound 790]	–	–	–	Insecticidal effect on rice leafroller (Test Example 3), judged grade [1]: A (100)
Cc1cc(OC(F)F)ccc1NC(=O)c1c(SCC(F)(F)F)cccc1C(=O)NC(C)C [compound 798]	–	–	–	Insecticidal effect on rice leafroller (Test Example 3), judged grade [1]: A (100)
Cc1cc(OC(F)F)ccc1NC(=O)c1c(C(=O)NC(C)C)cccc1[S+]([O-])CC(F)(F)F (stereo not drawn) [compound 800]	–	–	–	Insecticidal effect on rice leafroller (Test Example 3), judged grade [1]: C (89-80)
Cc1cc(SC(F)(F)C(F)(F)F)ccc1NC(=O)c1c(I)cccc1C(=O)NC(C)C [compound 910]	–	–	–	Insecticidal effect on rice leafroller (Test Example 3), judged grade [1]: A (100)
CCCCCCNC(=O)c1cccc(I)c1C(=O)Nc1ccc(C(F)(F)C(F)(F)F)cc1C [compound 950]	–	–	C (89-80)	–
Cc1cc(C(F)(F)C(F)(F)F)ccc1NC(=O)c1c(I)cccc1C(=O)NCCC(C)C [compound 1016]	–	–	A (100)	–
CCC(C)CNC(=O)c1cccc(I)c1C(=O)Nc1ccc(C(F)(F)C(F)(F)F)cc1C (stereo not drawn) [compound 1027]	–	–	A (100)	–
Cc1cc(C(F)(F)C(F)(F)F)ccc1NC(=O)c1c(I)cccc1C(=O)N(C(C)C)C(C)C [compound 1072]	–	–	A (100)	–
CCN(CC)C(=O)c1cccc([N+](=O)[O-])c1C(=O)Nc1ccc(Cl)cc1C [compound 1138]	–	–	A (100)	–
Cc1cc(C(F)(F)C(F)(F)F)ccc1NC(=O)c1c(I)cccc1C(=O)N1CC(C)CC(C)C1 (stereo not drawn) [compound 1140]	–	–	A (100)	–
Cc1cc(OC(F)(F)F)ccc1NC(=O)c1cc(Cl)cc(Cl)c1C(=O)NC(C)C [compound 1224]	–	–	B (99-90)	–
Cc1cc(C(F)(F)C(F)(F)F)ccc1NC(=O)c1cc(Cl)cc(Cl)c1C(=O)NC(C)C [compound 1225]	–	–	A (100)	–
Cc1cc(C(F)(C(F)(F)F)C(F)(F)F)ccc1NC(=O)c1cc(Cl)cc(Cl)c1C(=O)NC(C)C [compound 1226]	–	–	A (100)	–
COC(Oc1ccc(NC(=O)c2cccc(Cl)c2C(=O)NC(C)C)c(C)c1)=C(C(F)(F)F)C(F)(F)F [compound 1293]	–	–	A (100)	–
Cc1cc(C#CC(C)(C)C)ccc1NC(=O)c1c(I)cccc1C(=O)NC(C)C [compound 1306]	–	–	A (100)	–
Cc1cc(C(F)(F)C(F)(F)F)ccc1NC(=O)c1c(Cl)cccc1C(=O)NCc1ccccc1 [compound 1308]	–	–	C (89-80)	–
Cc1cc(C(F)(F)C(F)(F)F)ccc1NC(=O)c1c(Cl)cccc1C(=O)NCc1ccccc1Cl [compound 1310]	–	–	B (99-90)	–
Cc1cc(C(F)(F)C(F)(F)F)ccc1NC(=O)c1c(Cl)cccc1C(=O)NCc1ccc(Cl)cc1Cl [compound 1350]	–	–	A (100)	–
Cc1cc(C(F)(F)C(F)(F)F)ccc1NC(=O)c1c(Cl)cccc1C(=O)NCCc1ccc(Cl)cc1 [compound 1361]	–	–	A (100)	–
Cc1cc(C(F)(F)C(F)(F)F)ccc1NC(=O)c1c(Cl)cccc1C(=O)NC(CO)c1ccc(Cl)cc1 (stereo not drawn) [compound 1416]	–	–	A (100)	–
Cc1cc(OC(F)F)ccc1NC(=O)c1cccc(I)c1C(=O)NCc1ccccc1Cl [compound 1432]	–	–	A (100)	–
Cc1cc(C(F)(F)C(F)(F)F)ccc1NC(=O)c1c(Cl)cccc1C(=O)NC(C)(C)C#Cc1ccccc1 [compound 1480]	–	–	–	Insecticidal effect (Test Example 3), judged from mortality [1, 3]: A (100)
Cc1cc(OC(F)(F)F)ccc1NC(=O)c1c(I)cccc1C(=O)NC(C)(C)CO [compound 1520]	–	–	–	Insecticidal effect (Test Example 3), judged from mortality [1, 3]: A (100)
Cc1ccc(C#CC(C)(C)NC(=O)c2c(Cl)cccc2C(=O)Nc2ccc(C(F)(F)C(F)(F)F)cc2C)cc1 [compound 1570]	–	–	–	Insecticidal effect (Test Example 3), judged from mortality [1, 3]: A (100)
Cc1c(NC(=O)c2cccc(I)c2C(=O)NC(C)C)ccc(C(F)(F)C(F)(F)F)c1C [compound 1640]	–	–	–	Insecticidal effect (Test Example 3), judged from mortality [1, 3]: A (100)
Cc1cc(C(F)(F)C(F)(F)F)c(C)cc1NC(=O)c1cccc(I)c1C(=O)NC(C)C [compound 1655]	–	–	–	Insecticidal effect (Test Example 3), judged from mortality [1, 3]: A (100)
